Experimental data as given in BindingDB's records for doi:10.1046/j.1471-4159.1996.67010145.x (Mcgill University, 1996).
Several values for one entry are separate records, joined by “and”; a condition that tells them apart may be missing. Equal values may be shown once.

Biological target: T1, Alpha-bungarotoxin (Bungarus multicinctus, UniProt P60615)
T1 sequence (P60615 whole entry): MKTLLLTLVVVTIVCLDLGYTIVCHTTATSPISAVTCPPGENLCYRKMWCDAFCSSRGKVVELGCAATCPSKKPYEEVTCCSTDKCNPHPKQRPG

In the case of `C[N+]1(C)CCN(c2ccccc2)CC1` [DMPP], the Ki is reported as 670 nM.
Work on `C[N+](C)(C)CCOC(N)=O` [(2-Hydroxyethyl)trimethyl ammonium chloride carbamate] yielded a Ki of 9300 nM.
`C=C(C=O)C[C@H]1C[C@H](O)[C@]2(C)O[C@@H]3C[C@@H]4O[C@@H]5C[C@]6(C)O[C@]7(C)CC[C@@H]8O[C@@H]9C[C@]%10(C)O[C@@H]%11C(C)=CC(=O)O[C@H]%11C[C@H]%10O[C@H]9C[C@@H](C)[C@H]8O[C@H]7C[C@H]6O[C@@]5(C)C/C=C\[C@H]4O[C@H]3C[C@H]2O1` was tested, and the Ki was 0.35 nM and 0.23 nM.
In the case of `CCN1C[C@]2(COC(=O)c3ccccc3-n3c(O)cc(C)c3O)CC[C@H](OC)[C@]34C5C[C@@H]6[C@@H](OC)C[C@@](O)(C5[C@H]6OC)[C@@](O)(C13)[C@@H](OC)C24` (stereo partly drawn) [[(1S,4S,5R,6S,8R,9R,13S,16S,18S)-11-ethyl-8,9-dihydroxy-4,6,16,18-tetramethoxy-11-azahexacyclo[7.7.2.1^{2,5}.0^{1,10}.0^{3,8}.0^{13,17}]nonadecan-13-yl]methyl 2-[(3S)-3-methyl-2,5-dioxopyrrolidin-1-yl]benzoate], the Ki is reported as 7.9 nM and 3.1 nM.
Work on `C[N+](C)(C)C` yielded a Ki of 2400 nM.
In the case of `COc1cc2c3cc1Oc1cc(ccc1O)C[C@H]1c4c(cc(OC)c(O)c4Oc4ccc(cc4)C[C@@H]3N(C)CC2)CC[N+]1(C)C` [CAS_57-94-3], the Ki is reported as 5600 nM.
In the case of `CN1CCC[C@H]1c1cccnc1` [(R,S)-nicotine], the Ki is reported as 1700 nM and 900 nM.
For `CC[N+](CC)(CC)CC`, the Ki was > 10000 nM.
In the case of `O=c1cccc2n1C[C@H]1CNC[C@H]2C1` [(1S,9R)-7,11-diazatricyclo[7.3.1.0~2,7~]trideca-2,4-dien-6-one], the Ki is reported as 1800 nM.
